We go through four compounds from patent publication US12428394B2, “2,4-disubstituted pyrimidine derivative, preparation method therefor and use thereof” (CHENGDU ZENITAR BIOMEDICAL TECHNOLOGY CO., LTD., priority 2019, dated 2025).

Structures are written as SMILES.

For one experiment, the system named is SET-2 cells (JAK2 V617F). Description: Inhibition of cell proliferation by MTT experiment, SET-2. Type of experiment: cell-based. As to conditions: Homo sapiens, SET-2; MTT, 72 h; read-out: IC50 value on cell proliferation inhibition, SET-2 (V617F). Summed up: (§1)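 MTT assay in MV4-11, MOLM-13 (FLT3-ITD) and SET-2 (JAK2 V617F) cells at 10,000–15,000 cells/well in IMDM with 10% FBS. Cells are exposed to compound for 72 h at 37 °C, then to MTT for 1–3 h. IC50 is fitted from inhibition rates across concentrations.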

Experiment [1] relates to MV4-11 cells (FLT3-ITD+/+). Description: Inhibition of cell proliferation by MTT experiment, MV4-11. The note with it: Homo sapiens, MV4-11; MTT, 72 h; read-out: IC50 value on cell proliferation inhibition, MV4-11 FLT3-ITD+/+. It is filed as cell-based, human. Summed up:
as §1

In another experiment the target is T1, JAK2 (Homo sapiens, UniProt O60674).
T1 construct: purchased Eurofins
Description: In vitro kinase activity experiment, JAK2. Type of experiment: biochemical. As to conditions: for Kinase activity @ 500 nM (%) JAK2: inhibition rate of enzyme at 500 nM, measured by Eurofins. A digest of the protocol:
(§2)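 Radiometric filter-binding assay: kinase, its substrate and compound in 8 mM MOPS pH 7.0, 0.2 mM EDTA, 10 mM MnCl2, with 10 mM magnesium acetate and γ33P-ATP; MgATP started the reaction, 40 min at room temperature. Stopped with 3% phosphate, spotted on Filtermat A, washed, scintillation counted.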

In another experiment the target is T2, JAK1 (Homo sapiens, UniProt P23458).
T2 construct: purchased Eurofins
Description: In vitro kinase activity experiment, JAK1. It is filed as biochemical. The procedure:
(§3) Buffer solution ([…], pH 7.0, 0.2 mm EDTA, 10 mM mncl2), kinase to be tested, substrate of kinase to be tested, 10 mM magnesium acetate and γ33P-ATP solution, and compounds with different concentrations were added to a reaction tube in turn, then MgATP was added to initiate the enzyme reaction process, and incubated at room temperature for 40 min. Then, the reaction was terminated with 5 μl of […], and 10 μl of the reaction solution was titrated onto the Filtermat A membrane, washed with 75 mM phosphate solution for three times, each time for 5 min., and then washed with methanol once. Finally, the Filtermat A membrane was dried and the scintillation count was carried out.

A further experiment addresses T3, JAK3 (Homo sapiens, UniProt P52333).
T3 construct: purchased Eurofins
T3 sequence (P52333 1-1124): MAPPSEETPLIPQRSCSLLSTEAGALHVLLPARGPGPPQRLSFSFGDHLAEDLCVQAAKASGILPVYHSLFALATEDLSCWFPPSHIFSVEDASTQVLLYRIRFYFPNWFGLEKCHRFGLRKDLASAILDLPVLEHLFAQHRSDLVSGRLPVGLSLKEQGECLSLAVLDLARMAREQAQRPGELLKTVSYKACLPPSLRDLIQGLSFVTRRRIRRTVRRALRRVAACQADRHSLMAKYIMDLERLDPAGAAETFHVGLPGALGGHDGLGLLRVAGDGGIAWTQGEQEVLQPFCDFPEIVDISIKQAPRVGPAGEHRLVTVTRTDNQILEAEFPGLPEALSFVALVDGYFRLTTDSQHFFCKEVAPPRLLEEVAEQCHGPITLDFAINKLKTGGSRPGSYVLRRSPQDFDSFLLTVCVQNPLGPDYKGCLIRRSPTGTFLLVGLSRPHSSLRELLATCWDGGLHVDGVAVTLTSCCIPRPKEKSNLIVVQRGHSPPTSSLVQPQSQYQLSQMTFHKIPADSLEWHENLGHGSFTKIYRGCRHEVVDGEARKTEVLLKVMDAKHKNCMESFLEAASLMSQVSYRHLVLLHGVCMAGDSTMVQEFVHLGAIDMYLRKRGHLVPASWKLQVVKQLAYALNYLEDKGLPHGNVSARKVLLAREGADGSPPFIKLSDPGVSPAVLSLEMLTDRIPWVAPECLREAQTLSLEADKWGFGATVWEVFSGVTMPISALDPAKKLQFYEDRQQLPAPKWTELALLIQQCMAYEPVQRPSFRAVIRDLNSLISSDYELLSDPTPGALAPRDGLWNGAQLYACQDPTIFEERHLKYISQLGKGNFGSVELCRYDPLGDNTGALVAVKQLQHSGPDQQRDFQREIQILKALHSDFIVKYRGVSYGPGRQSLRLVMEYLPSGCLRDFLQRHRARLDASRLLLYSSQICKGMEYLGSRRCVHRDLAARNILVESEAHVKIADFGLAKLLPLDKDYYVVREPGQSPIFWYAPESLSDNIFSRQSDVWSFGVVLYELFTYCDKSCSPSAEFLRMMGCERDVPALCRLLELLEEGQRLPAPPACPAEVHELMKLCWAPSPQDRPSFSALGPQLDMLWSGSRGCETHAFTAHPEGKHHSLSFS
Put plainly: In vitro kinase activity experiment, JAK3. It is filed as biochemical. The procedure: as §3

The next experiment deals with T4, FLT3 (Homo sapiens, UniProt P36888).
T4 construct: purchased Eurofins
T4 sequence (P36888 27-993): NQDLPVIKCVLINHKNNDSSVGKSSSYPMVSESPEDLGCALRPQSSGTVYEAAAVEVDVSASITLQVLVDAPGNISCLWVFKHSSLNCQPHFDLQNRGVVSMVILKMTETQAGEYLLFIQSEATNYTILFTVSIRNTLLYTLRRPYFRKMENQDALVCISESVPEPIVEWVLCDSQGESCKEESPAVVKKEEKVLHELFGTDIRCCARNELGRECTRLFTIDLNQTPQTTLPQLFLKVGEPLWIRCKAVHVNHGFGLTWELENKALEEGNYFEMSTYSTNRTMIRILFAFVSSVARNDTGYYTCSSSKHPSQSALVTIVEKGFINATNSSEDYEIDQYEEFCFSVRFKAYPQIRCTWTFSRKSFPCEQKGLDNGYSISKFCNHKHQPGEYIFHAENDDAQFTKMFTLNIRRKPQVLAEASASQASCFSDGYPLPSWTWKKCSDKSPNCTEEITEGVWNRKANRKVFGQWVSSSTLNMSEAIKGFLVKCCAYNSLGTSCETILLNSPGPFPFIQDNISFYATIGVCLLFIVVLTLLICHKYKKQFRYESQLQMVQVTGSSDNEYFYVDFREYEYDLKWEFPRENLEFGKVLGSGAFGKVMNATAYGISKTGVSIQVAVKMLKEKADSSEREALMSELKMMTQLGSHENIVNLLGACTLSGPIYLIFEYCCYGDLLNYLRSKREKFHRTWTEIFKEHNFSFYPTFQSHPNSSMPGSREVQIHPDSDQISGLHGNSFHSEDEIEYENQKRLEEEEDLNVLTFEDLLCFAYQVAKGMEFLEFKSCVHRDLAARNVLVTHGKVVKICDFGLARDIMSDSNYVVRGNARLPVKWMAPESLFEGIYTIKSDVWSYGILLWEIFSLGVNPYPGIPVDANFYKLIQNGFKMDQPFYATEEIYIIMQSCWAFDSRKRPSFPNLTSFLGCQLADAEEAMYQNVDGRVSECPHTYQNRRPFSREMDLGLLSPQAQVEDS
Put plainly: In vitro kinase activity experiment, FLT3. Type of experiment: biochemical. As to conditions: for inhibition at 0.5 µM: 40 min, inhibition rate of enzyme at 500 nM, measured by Eurofins, read-out: Kinase activity @ 500 nM (%) FLT3. A digest of the protocol:
as §2

Experiment [2] deals with MOLM-13 cells (FLT3-ITD-/+). Put plainly: Inhibition of cell proliferation by MTT experiment, MOLM-13. Type of experiment: cell-based, human. As to conditions: Homo sapiens, MOLM-13; MTT, 72 h; read-out: IC50 value on cell proliferation inhibition, MOLM-13 FLT3-ITD-/+. A digest of the protocol: as §1
In experiment [3] the test system is Ba/F3-EpoR-JAK2V617F cells. Put plainly: Ba/F3-EpoR-JAK2V617F-driven malignant tumor mouse model. Type of experiment: in vivo, Babl/c-nude mice. The note with it: 30 mg/Kg, oral twice a day. The procedure: Babl/c-nude mice (Beijing Huafukang Biotechnology Co., Ltd.) were received and acclimated to the environment until these mice were normalized in diet and activity, and the modeling began. Ba/F3-EpoR-JAK2V617F cells (State Key Laboratory of Biotherapy, Sichuan University) were routinely incubated and grew to 80% fusion degree. Then the cells were centrifuged at 1000 rpm for 3 min., collected, resuspended by PBS and counted by a cell counter; while the survival rate of the cells was calculated. Only when the proportion of living cells exceeds 90%, can the cells be used in the experiment, with the cell concentration adjusted to 1×10^7 cells/mL. After the cells were collected, the cell suspension was pre-cooled on ice. Each mouse was inoculated as per 1.0×10^6, and batch induction modeling was carried out.

In the next experiment the test system is JAK2V617F. Description: JAK2V617F-induced myelofibrosis mouse model. It is filed as in vivo, BALB/c mice. As to conditions: 30 mg/Kg, oral twice a day, after 8 weeks of treatment. From the text: JAK2 mutant JAK2V617F gene vector MSCV-JAK2V617F-GFP (Chengdu Wandao Biotechnology Development Co., Ltd.) and BALB/c mice (Jiangsu Jicui Yaokang Biotechnology Co., Ltd.) were provided as donors. The mouse bone marrow cells were sampled and infected with JAK2V617F virus, and the infected cells were reinfused into BALB/c recipient mice irradiated by X-rays through tail vein. Then, the JAK2V617F-positive myelofibrosis mouse model was induced. […] The administration route was oral administration twice a day, and the mice in the blank control group and the model group took the same volume of normal saline orally. […] Therefore, modifications or improvements made without departing from the spirit of the present invention are within the scope of protection of the present invention.

T2 sequence (P23458 whole entry): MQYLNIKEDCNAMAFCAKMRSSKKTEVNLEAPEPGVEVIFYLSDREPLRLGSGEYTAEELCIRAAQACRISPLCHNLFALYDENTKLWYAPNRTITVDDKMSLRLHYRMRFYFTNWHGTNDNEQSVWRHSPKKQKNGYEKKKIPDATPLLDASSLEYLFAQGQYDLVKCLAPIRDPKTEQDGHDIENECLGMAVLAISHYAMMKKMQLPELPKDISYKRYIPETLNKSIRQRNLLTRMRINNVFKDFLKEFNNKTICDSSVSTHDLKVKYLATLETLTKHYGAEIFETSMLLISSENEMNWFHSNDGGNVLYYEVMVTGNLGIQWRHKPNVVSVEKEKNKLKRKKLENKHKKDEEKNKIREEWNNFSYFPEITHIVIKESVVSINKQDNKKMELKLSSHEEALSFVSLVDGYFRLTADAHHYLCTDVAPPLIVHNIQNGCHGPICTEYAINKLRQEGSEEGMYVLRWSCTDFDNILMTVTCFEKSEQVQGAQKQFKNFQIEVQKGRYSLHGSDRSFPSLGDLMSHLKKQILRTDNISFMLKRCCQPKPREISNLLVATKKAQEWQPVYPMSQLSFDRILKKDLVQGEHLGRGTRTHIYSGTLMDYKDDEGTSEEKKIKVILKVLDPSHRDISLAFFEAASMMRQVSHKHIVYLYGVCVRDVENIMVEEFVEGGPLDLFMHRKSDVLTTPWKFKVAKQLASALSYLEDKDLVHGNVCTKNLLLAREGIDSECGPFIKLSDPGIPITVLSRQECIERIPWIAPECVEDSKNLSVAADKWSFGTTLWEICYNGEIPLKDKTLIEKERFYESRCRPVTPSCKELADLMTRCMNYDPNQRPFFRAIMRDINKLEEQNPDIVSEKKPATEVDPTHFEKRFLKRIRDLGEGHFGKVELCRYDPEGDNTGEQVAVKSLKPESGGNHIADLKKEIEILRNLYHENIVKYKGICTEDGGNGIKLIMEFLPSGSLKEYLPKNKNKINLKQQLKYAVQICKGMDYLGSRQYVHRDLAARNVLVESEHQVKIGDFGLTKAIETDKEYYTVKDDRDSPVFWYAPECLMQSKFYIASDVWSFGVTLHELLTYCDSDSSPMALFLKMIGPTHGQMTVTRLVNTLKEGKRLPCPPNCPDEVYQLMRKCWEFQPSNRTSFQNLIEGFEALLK
T1 sequence (O60674 whole entry): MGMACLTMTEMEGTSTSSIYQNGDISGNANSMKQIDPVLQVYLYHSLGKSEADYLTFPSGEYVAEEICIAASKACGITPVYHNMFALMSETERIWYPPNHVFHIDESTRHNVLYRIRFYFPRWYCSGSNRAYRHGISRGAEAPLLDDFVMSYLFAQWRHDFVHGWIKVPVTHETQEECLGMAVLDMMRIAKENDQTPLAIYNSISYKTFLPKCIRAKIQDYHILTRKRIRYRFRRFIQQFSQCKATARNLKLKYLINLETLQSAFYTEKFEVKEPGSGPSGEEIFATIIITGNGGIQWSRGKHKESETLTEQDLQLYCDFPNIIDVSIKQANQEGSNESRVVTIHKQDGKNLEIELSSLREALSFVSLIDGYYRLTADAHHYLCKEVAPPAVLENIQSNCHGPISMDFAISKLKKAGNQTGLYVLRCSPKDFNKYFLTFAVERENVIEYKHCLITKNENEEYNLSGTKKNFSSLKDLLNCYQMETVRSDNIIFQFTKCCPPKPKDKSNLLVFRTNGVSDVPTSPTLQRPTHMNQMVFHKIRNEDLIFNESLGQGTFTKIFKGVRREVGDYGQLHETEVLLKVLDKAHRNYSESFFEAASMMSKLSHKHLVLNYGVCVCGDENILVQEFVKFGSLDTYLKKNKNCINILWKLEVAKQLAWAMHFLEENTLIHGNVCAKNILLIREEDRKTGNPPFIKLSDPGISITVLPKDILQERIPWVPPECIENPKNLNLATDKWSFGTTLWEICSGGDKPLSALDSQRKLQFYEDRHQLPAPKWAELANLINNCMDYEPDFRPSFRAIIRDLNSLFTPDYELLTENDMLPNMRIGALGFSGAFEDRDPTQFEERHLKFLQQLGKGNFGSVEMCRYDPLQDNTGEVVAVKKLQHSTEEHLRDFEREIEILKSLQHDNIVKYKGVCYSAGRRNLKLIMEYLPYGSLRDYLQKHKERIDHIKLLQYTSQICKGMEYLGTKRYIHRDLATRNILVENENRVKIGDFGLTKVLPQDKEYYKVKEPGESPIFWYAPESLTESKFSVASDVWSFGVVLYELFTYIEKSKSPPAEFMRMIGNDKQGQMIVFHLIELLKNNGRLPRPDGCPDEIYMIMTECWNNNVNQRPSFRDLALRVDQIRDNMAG

With `Cc1cnc(Nc2ccc(N3CCC(N(C)CC4CC4)CC3)c(F)c2)nc1-c1cnn(C(C)C)c1` [CLJ-52, 5-methyl-N-(3-fluoro-4-(4-N-cyclopropanemethyl-4-N-methylaminopiperidine-1-yl)phenyl)-4-(1-isopropyl-1H-pyrazole-4-yl) pyrimidine-2-amine], the IC50 in the experiment on SET-2 cells (JAK2 V617F) is 100 to 1000 nM; in experiment [1], 1 to 10 nM; against JAK2, 1 nM; at JAK1 it was 47 nM; against JAK3 it was 23 nM; against FLT3, 9 nM. Besides, the IC50 in experiment [2] fell in the range of 10 to 100 nM. On JAK2, the “Kinase activity @ 500 nM (%) JAK2” value stood at 106%. On FLT3, the inhibition at 0.5 µM turned out to be 102%.
Turning to `Cc1cnc(Nc2ccc(N3CCC(N(C)CCO)CC3)c(F)c2)nc1-c1cn(C(C)C)nc1S(C)(=O)=O` [CLJ-91, 5-methyl-N-(3-fluoro-4-(4-N-hydroxyethyl-4-N-methylaminopiperidine-1-yl)phenyl)-4-(1-isopropyl-3-methylsulfonyl-1H-pyrazole-4-yl) pyrimidine-2-amine], the IC50 in the experiment with SET-2 cells (JAK2 V617F) is 100 to 1000 nM; in experiment [1], 10 to 100 nM; against JAK2 it was 3 nM; on JAK1 it was 121 nM; on JAK3 it was 103 nM; against FLT3, 11 nM. In experiment [2], the IC50 fell in the range of 10 to 100 nM. Moreover, the “Kinase activity @ 500 nM (%) JAK2” value at JAK2 is listed as 100%. For the same compound, at FLT3, the inhibition at 0.5 µM was determined as 97%.
For `Cc1cnc(Nc2ccc(NS(=O)(=O)c3ccc(C(F)(F)F)cc3)c(F)c2)nc1-c1cnn(C(C)C)c1` [CLJ-94, N-(2-fluoro-4-((4-(1-isopropyl-1H-pyrazole-4-yl)-5-methylpyrimidine-2-yl)amino)phenyl)-4-(trifluoromethyl) benzenesulfonamide], the IC50 in the experiment with SET-2 cells (JAK2 V617F) was 100 to 1000 nM; in experiment [1], 10 to 100 nM; on JAK2, 2 nM; at JAK1, 76 nM; at JAK3 it was 39 nM; against FLT3, 15 nM. Further, the IC50 in experiment [2] lay within 10 to 100 nM. On JAK2, the “Kinase activity @ 500 nM (%) JAK2” value stood at 99%. Also, on FLT3, the inhibition at 0.5 µM turned out to be 94%.
Turning to `Cc1cnc(Nc2ccc(OCCN3CCCC3)cc2)nc1Nc1cccc(S(=O)(=O)NC(C)(C)C)c1` [Fedratinib, reference compound], in experiment [3], the “inhibition of spleen growth” value is reported as 40.23%. Moreover, in the experiment on JAK2V617F, the “inhibition of growth rate of spleen” value is reported as 29.46%.
